Series [1] is described as follows: Oxygen Radical Absorbance Capacity assay (ORAC antioxidant test). Format: biochemical. Conditions: for Calculated Trolox® equivalents: ratio of slope of sample to slope of Trolox® (Eq. 3). An excerpt:
Sodium Fluorescein was purchased from Invitrogen. 2,2′-Azobis(2-amidinopropane) dihydrochloride (AAPH), 6-hydroxy-2,5,7,8-tetramethylchroman-2-carboxylic acid (Trolox®), gallic acid, Epigallocatechin gallate (EGCG), epigallocatechin (EGC), and quercetin dihydrate were purchased from Sigma-Aldrich (St. Louis, Mo.). Black-sided, special optics clear bottom plates (part #3615) were obtained from Corning.
The ORAC assay depends on the free radical damage to a fluorescent probe, such as fluorescein, to result in a downward change of fluorescent intensity. The assumption is that the degree of change is indicative of the amount of radical damage. […] This inhibition is observed as a preservation of the fluorescent signal. Reactions containing antioxidants and or blanks are run in parallel using equivalent amounts of a molecule capable of generating super reactive oxygen species (ROS) and fluorescent probe. Because the reaction is driven to completion, one can quantitate the protection by calculating the area under the curve (AUC) from the experimental sample. After subtracting the AUC from the blank, the resultant difference would be the protection conferred by the antioxidant compound. […] The ORAC assay is unique in that because the assay is driven to completion the AUC calculation combines both the inhibition time as well inhibition percentage of free radical damage by the antioxidant into a single quantity.
Reactive oxygen species generators were added to parallel reactions containing equal amounts of a fluorescent probe. Reactions contained either a buffer blank or antioxidant samples and standards. The antioxidant capacity of a sample is the net difference between the area under the curve (AUC) of the sample and that of the blank. The exterior wells were not used for experimental determinations. 200 μL of MilliQ dH2O was added to the outer wells surrounding the test wells in order to minimize evaporation. 150 μL sodium fluorescein was added to experimental wells. […] The plate was allowed to equilibrate by incubating for 30 min in the Victor2^V Microplate Reader (Perkin Elmer, Waltham, Mass.) at 37° C. Reactions were initiated by the addition 25 μL of AAPH solution (free radical initiator) for a final reaction volume of 200 μl. The fluorescence was monitored kinetically in Victor2V with temperature control reader for at least 80 min with data taken every minute. Fast orbital shaking (0.5 mm) for 10 sec was performed prior to each reading. The temperature was set to 37° C. at all time and the reagents were treated as light sensitive.
AUC=(R1/R1)+(R2/R1)+(R3/R1)+ . . . +(Rn/R1) (Eq. 1)
Where R1 is the fluorescence reading at the initiation of the reaction and Rn is the last measurement.
Net AUC=AUC(sample)−AUC(blank) (Eq. 2)
The resultant standard curve was then interpolated to determine of antioxidant capacity of the samples and reported as Trolox® equivalence. To determine Trolox® equivalents of each sample range the ratio of the slope (m) of the linear regression analysis of the sample to the slope of the linear regression of Trolox® was used:
TE(range of concentrations)=m(sample)/m(Trolox®) (Eq. 3)

The next series concerns the target T1, β-Amyloid 1-40 peptide (Homo sapiens, UniProt P05067).
T1 construct: 60 μM β-Amyloid 1-40
In words: β-Amyloid aggregation, Thioflavin T fluorescence assay. Format: biochemical. The conditions noted are these: 24 hours; for reduction of fibrillogenesis: with ApoE4 added (about 1/80 of test compound), equimolar with Aβ; for potency in reducing fibrillogenesis compared with melatonin: with ApoE4 added. As to the method:
In a NUNC PP 96-well plate 100 μL of MilliQ dH2O was added to the outer wells surrounding the test wells in order to minimize evaporation. Samples in a final volume of 100 μl/well were added to the 96-well plate as follows:
Aggregation was measured at 0 and 24 hours incubation time.
5 μL was obtained from each test sample after incubation and added to 2 mL of a glycine/NaOH buffer (50 mM, pH 9.2) containing 3 μM thioflavin T. Fluorescence intensities were measured at an excitation wavelength of 450 nm and an emission wavelength of 485 nm in a Envision fluorescence spectrophotometer. A time scan of fluorescence intensity was performed, and three measurements were taken after the decay reached a plateau at 200, 220, and 240 s and averaged after subtracting the background fluorescence of 3 μM thioflavin T in the blank buffers. […] All measurements were taken in triplicate. Siliconized polypropylene microcentrifuge tubes (USA Scientific) were used for these experiments. Solutions of recombinant apolipoproteins were immediately lyophilized and, prior to being used, resuspended in 0.1 M tris-phosphate-HCl buffer (pH 7.4). […] Solutions of Aβ were prepared by dissolving 2.2 mg of the peptide in 1 mL of 50 mM buffer at pH 9.6. Aliquots (50 uL) of this solution were lyophilized and stored at −80° C. until they were needed for the experiments. Working stock solutions of the peptide (concentration of 500 uM) were prepared in HPLC-grade water immediately prior to the experiments. The absence of aggregates and amyloid fibrils in these solutions was verified by spectrofluorometry.

Series [2] relates to moderate-stage AD patients. The conditions noted are these: 2000 IU per day; cited from earlier work.
Another series has as its system patients with AD. Conditions: 250 mg dose, cited from earlier work.

Molecules are shown by their SMILES. “And” between values parts separate entries of the source, which are not always exact repeats. Identical values can stand only once.

T1 sequence (P05067 672-711): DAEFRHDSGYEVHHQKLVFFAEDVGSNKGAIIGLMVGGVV

As to `COc1ccc2[nH]cc(CCNC(C)=O)c2c1` [Melatonin, N-[2-(5-Methoxyindol-3-yl)ethyl]acetamide], the AUC in series [1] (Concentration 0.390625) amounted to 14.74; in series [1] (Concentration 0.78125), 20.89; in series [1] (Concentration 1.5625), 28.74; in series [1] (Concentration 3.125), 42.59; in series [1] (Concentration 6.25) it was 66.10; in series [1] (Concentration 12.5), 88.65. Besides, the AUC in series [1] (Concentration 25) was found to be 93.12; in series [1] (Concentration 50) it was 94.75; in series [1] (Concentration 100), 91.48. Besides, the “Net AUC” value in series [1] (Concentration 0.390625) came to 8.09; in series [1] (Concentration 0.78125) it was 14.24; in series [1] (Concentration 1.5625) it was 22.09; in series [1] (Concentration 3.125), 35.94; in series [1] (Concentration 6.25), 59.45; in series [1] (Concentration 12.5), 82.00. Also, the “Net AUC” value in series [1] (Concentration 25) was determined as 86.47; in series [1] (Concentration 50), 88.10; in series [1] (Concentration 100), 84.82.
On to `COc1ccc2[nH]cc(CCNC(=O)CCOCCOCCOCCOCCNC(=O)CCN3C(=O)CC(SC[C@H](N)C(=O)O)C3=O)c2c1` (stereo partly drawn) [Example 2, (2R)-2-amino-3-((1-(1-(5-methoxy-1H-indol-3-yl)-4,20-dioxo-7,10,13,16-tetraoxa-3,19-diazadocosan-22-yl)-2,5-dioxopyrrolidin-3-yl)thio)propanoic acid], for which the AUC in series [1] (Concentration 0.390625) worked out at 13.97; in series [1] (Concentration 0.78125), 20.49; in series [1] (Concentration 1.5625) it was 28.06; in series [1] (Concentration 3.125), 45.62; in series [1] (Concentration 6.25) it was 71.79; in series [1] (Concentration 12.5), 94.48. For the same compound, the AUC in series [1] (Concentration 25) is reported as 97.13; in series [1] (Concentration 50) it was 97.12; in series [1] (Concentration 100) it was 96.55. Also, the “Net AUC” value was 7.75 in series [1] (Concentration 0.390625); 14.27 in series [1] (Concentration 0.78125); 21.84 in series [1] (Concentration 1.5625); 39.39 in series [1] (Concentration 3.125); 65.56 in series [1] (Concentration 6.25); 88.26 in series [1] (Concentration 12.5). Besides, the “Net AUC” value was 90.91 in series [1] (Concentration 25), 90.90 in series [1] (Concentration 50) and 90.33 in series [1] (Concentration 100). The “Calculated Trolox® equivalents” value in series [1] is on record as 1.97 Trolox® equivalents. The reduction of fibrillogenesis at β-Amyloid 1-40 peptide was determined as 75%. Moreover, the “potency in reducing fibrillogenesis compared with melatonin” value at β-Amyloid 1-40 peptide was “about 2 fold”.
Consider `COc1ccc2[nH]cc(CCNC(=O)CCCCCN3C(=O)CC(SC[C@H](N)C(=O)O)C3=O)c2c1` (stereo partly drawn) [Example 1, (2R)-2-amino-3-((1-(6-((2-(5-methoxy-1H-indol-3-yl)ethyl)amino)-6-oxohexyl)-2,5-dioxopyrrolidin-3-yl)thio)propanoic acid], for which the AUC in series [1] (Concentration 0.390625) came out at 14.99; in series [1] (Concentration 0.78125), 20.01; in series [1] (Concentration 1.5625) it was 29.51; in series [1] (Concentration 3.125), 46.55; in series [1] (Concentration 6.25), 74.68; in series [1] (Concentration 12.5) it was 93.56. For the same compound, the AUC is 93.03 in series [1] (Concentration 25), 88.39 in series [1] (Concentration 50) and 82.12 in series [1] (Concentration 100). The “Net AUC” value in series [1] (Concentration 0.390625) turned out to be 8.56; in series [1] (Concentration 0.78125) it was 13.58; in series [1] (Concentration 1.5625), 23.08; in series [1] (Concentration 3.125), 40.12; in series [1] (Concentration 6.25), 68.25; in series [1] (Concentration 12.5) it was 87.13. In addition, the “Net AUC” value in series [1] (Concentration 25) is reported as 86.60; in series [1] (Concentration 50) it was 81.96; in series [1] (Concentration 100), 75.69. Besides, the “Calculated Trolox® equivalents” value in series [1] is recorded as 2.02 Trolox® equivalents. On β-Amyloid 1-40 peptide, this compound showed a reduction of fibrillogenesis of 75%. For the same compound, on β-Amyloid 1-40 peptide, the “potency in reducing fibrillogenesis compared with melatonin” value is “about 2 fold”.
Regarding `Cc1c(C)c2c(c(C)c1O)CCC(C)(C(=O)O)O2` (stereo not shown) [Trolox, 6-hydroxy-2,5,7,8-tetramethylchroman-2-carboxylic acid], in series [1] (6.25 μM, lowest concentration tested, versus buffer only control), the “protection of fluorescein against oxidation” value was “only slight protection”. The “duration of virtually full protection of fluorescein against oxidation” value in series [1] (100 μM, highest concentration tested) is recorded as “approximately 20 minutes”. The AUC in series [1] (Concentration 0.390625) is 11.95 and 13.53 and 11.49; in series [1] (Concentration 0.78125), 14.90 and 15.01 and 14.62; in series [1] (Concentration 1.5625), 20.00 and 19.69 and 19.52; in series [1] (Concentration 3.125), 28.96 and 29.49 and 28.51; in series [1] (Concentration 6.25), 44.91 and 44.55 and 43.41; in series [1] (Concentration 12.5), 77.61 and 74.88 and 73.04. The AUC in series [1] (Concentration 25) is 96.34 and 100.28 and 98.61; in series [1] (Concentration 50), 98.05 and 97.48 and 100.67; in series [1] (Concentration 100) it was 95.82 and 99.05 and 97.58. The “Net AUC” value in series [1] (Concentration 0.390625) was 5.30 and 7.10 and 5.27; in series [1] (Concentration 0.78125), 8.24 and 8.58 and 8.39; in series [1] (Concentration 1.5625) it was 13.34 and 13.26 and 13.30; in series [1] (Concentration 3.125), 22.31 and 23.06 and 22.29; in series [1] (Concentration 6.25), 38.25 and 38.12 and 37.18; in series [1] (Concentration 12.5), 70.96 and 68.45 and 66.81. Also, the “Net AUC” value in series [1] (Concentration 25) is 89.68 and 93.85 and 92.39; in series [1] (Concentration 50) it was 91.40 and 91.05 and 94.45; in series [1] (Concentration 100), 89.17 and 92.62 and 91.35.
Turning to `Cc1c(C)c2c(c(C)c1O)CCC(C)(CCCC(C)CCCC(C)CCCC(C)C)O2` (stereo not drawn) [Vitamin E, α-tocopherol], in series [2], the “delay in reaching the end points of institutionalization, loss of major activities of daily living, or death” value is recorded as “small but significant delay” and the “loss of cognitive performance” value was “did not delay”.
Take `CN(C)Cc1ccc2c(Cl)cc(Cl)c(O)c2n1` [PBT2]: in the series with patients with AD (patients with AD), the tolerability entry was “well-tolerated”. In the series on patients with AD (within 12 weeks of treatment), the “cerebrospinal fluid (CSF) levels of amyloid-beta42” value is reported as “significantly lowered” and the “executive function on a Neuro-psychological Test Battery (NTB)” value is “significantly improved”.
